Several values for one entry are separate records, joined by “and”; a condition that tells them apart may be missing. Equal entries are not always repeated.
How the values were obtained:
[1] = system: wt-TMD8 diffuse large B-cell lymphoma cells; assay: Cell proliferation assay wt-TMD8 (ATPlite, 120 hours); type: cell-based; conditions: B-cell; wt-TMD8 cells, 120 hours, ATPlite; read-out: IC50 wt-TMD8
Summary of the method: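 Readout is percentage growth from ATPlite 1Step luminescence after 5 days (120 h) compound treatment of wt-TMD8 lymphoma cells (1600/well, RPMI-1640 + 10% FBS). Time-zero signal separates growth inhibition from cell kill; 0.3% DMSO wells without compound define maximal growth.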

BTK T474S = BTK T474S (Homo sapiens (Human), UniProt Q06187, T474S); assay: Binding kinetics measurements (Surface Plasmon Resonance) on BTK T474S; conditions: for residence time: SPR binding kinetics, BTK T474S, read-out: Tau (h) BTK T474S (Act), target residence time (converted); for Kd: binding affinity by Surface Plasmon Resonance (SPR)
BTK T474S, sequence (Q06187 whole entry T474S): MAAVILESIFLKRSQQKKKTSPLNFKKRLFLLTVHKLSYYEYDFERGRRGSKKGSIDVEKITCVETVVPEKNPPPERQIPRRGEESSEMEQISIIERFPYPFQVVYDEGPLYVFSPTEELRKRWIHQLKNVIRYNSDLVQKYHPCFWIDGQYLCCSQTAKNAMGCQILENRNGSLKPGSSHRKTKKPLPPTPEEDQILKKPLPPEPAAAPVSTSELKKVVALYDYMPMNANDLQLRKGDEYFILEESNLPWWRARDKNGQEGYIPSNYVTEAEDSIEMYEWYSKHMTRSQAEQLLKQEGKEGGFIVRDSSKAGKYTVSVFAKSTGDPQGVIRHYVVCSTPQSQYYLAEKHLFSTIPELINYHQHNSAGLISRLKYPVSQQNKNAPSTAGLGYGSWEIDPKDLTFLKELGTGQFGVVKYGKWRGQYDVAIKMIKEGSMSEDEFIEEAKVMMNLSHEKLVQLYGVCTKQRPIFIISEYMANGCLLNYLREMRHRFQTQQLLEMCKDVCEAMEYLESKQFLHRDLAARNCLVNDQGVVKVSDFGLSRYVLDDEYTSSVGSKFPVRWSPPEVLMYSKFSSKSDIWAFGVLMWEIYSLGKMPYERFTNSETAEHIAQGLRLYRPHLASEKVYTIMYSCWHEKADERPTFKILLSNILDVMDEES
Summary of the method: (§1)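 Constants come from single-cycle kinetics: five rising compound injections (3.16-316 nM) at 30 μl/min and 22° C over streptavidin-captured BTK (wild type or mutant), running buffer containing 1% DMSO. Double referencing applied; induced-fit binders fitted to a two-state model; duplicates geometrically averaged; residence time derived.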

[2] = biological target: full-length wt-BTK enzyme (Homo sapiens (Human), UniProt Q06187); assay: Biochemical kinase assay wt-BTK (IMAP)
full-length wt-BTK enzyme, sequence (Q06187 whole entry): as the sequence (Q06187 whole entry T474S) above, with S474T counted along it
Summary of the method: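 Compound and enzyme (final 1.2 nM) were pre-incubated for 1 h at RT, after which the reaction was started with 4 μM ATP plus 50 nM fluorescein-MBP substrate peptide. After 2 h in the dark, the IMAP progressive binding reagent stopped the reaction, and phosphorylation was read by fluorescence polarization.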

wt-BTK = wt-BTK (Homo sapiens (Human), UniProt Q06187); assay: Binding kinetics measurements (Surface Plasmon Resonance) on wt-BTK; conditions: for Kd: binding affinity by Surface Plasmon Resonance (SPR); for Tau (h) wt-BTK (Act): target residence time, SPR
wt-BTK, sequence (Q06187 whole entry): as the sequence (Q06187 whole entry T474S) above, with S474T counted along it
Summary of the method: as §1

[3] = system: wt-REC-1 mantle cell lymphoma cells; assay: Cell proliferation assay wt-REC-1 (ATPlite, 72 hours); type: cell-based; conditions: 72 h; read-out: IC50 wt-REC-1
Summary of the method: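 Luminescent viability read over 72 h, start-of-incubation signal recorded separately to separate growth from cell death. Percentage growth referenced to compound-free 0.3% DMSO wells; IC50 from 4-parameter logistic fit.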

BTK T474I = BTK T474I (Homo sapiens (Human), UniProt Q06187, T474I); assay: Binding kinetics measurements (Surface Plasmon Resonance) on BTK T474I; conditions: for Kd: binding affinity by Surface Plasmon Resonance (SPR); for Tau (h) BTK T474I (Act): target residence time, SPR
BTK T474I, sequence (Q06187 whole entry T474I): as the sequence (Q06187 whole entry T474S) above, with S474I counted along it
Summary of the method: as §1

REC-1 T474I cell lines = assay: Cell proliferation assay REC-1 BTK T474I knock-in cells (ATPlite, 72 hours); type: cell-based; conditions: Homo sapiens, Rec1; 72 hours; read-out: IC50 REC-1 T474I
Summary of the method: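 REC-1 cells carrying CRISPR knock-in mutant BTK, single-cell cloned and sequence-confirmed, were exposed to compound for 72 h and read by ATPlite luminescence. Percentage growth was calculated against the signal at the start of incubation and against untreated 0.3% DMSO wells as maximum growth.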

BTK T316A = BTK T316A (Homo sapiens (Human), UniProt Q06187, T316A); assay: Binding kinetics measurements (Surface Plasmon Resonance) on BTK T316A; conditions: for Kd: binding affinity by Surface Plasmon Resonance (SPR); for Tau (h) BTK T316A (Act): target residence time, SPR
BTK T316A, sequence (Q06187 whole entry T316A): as the sequence (Q06187 whole entry T474S) above, with T316A, S474T counted along it
Summary of the method: as §1

[4] = biological target: full-length BTK C481S enzyme (Homo sapiens (Human), UniProt Q06187, C481S); assay: Biochemical kinase assay BTK C481S (IMAP)
full-length BTK C481S enzyme, sequence (Q06187 whole entry C481S): as the sequence (Q06187 whole entry T474S) above, with S474T, C481S counted along it
Summary of the method: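 IC50 values come from IMAP fluorescence polarization after quenching with progressive binding solution. The reaction ran 2 h at room temperature in the dark with 1.2 nM full-length C481S enzyme, 7 μM ATP and 50 nM fluorescein-labelled MBP-derived peptide, following a 1 h dark pre-incubation of compound with enzyme.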

BTK C481S = BTK C481S (Homo sapiens (Human), UniProt Q06187, C481S); assay: Binding kinetics measurements (Surface Plasmon Resonance) on BTK C481S; conditions: for Kd: binding affinity by Surface Plasmon Resonance (SPR); for Tau (h) BTK C418S (Act): target residence time for BTK C481S, SPR
BTK C481S, sequence (Q06187 whole entry C481S): as the sequence (Q06187 whole entry T474S) above, with S474T, C481S counted along it
Summary of the method: as §1

Row | Structure (SMILES) | IC50 [1] | residence time (BTK T474S) | Kd (BTK T474S) | IC50 [2] | Kd (wt-BTK) | Tau (h) wt-BTK (Act) (wt-BTK) | IC50 [3] | Kd (BTK T474I) | IC50 (REC-1 T474I cell lines) | Kd (BTK T316A) | IC50 [4] | Kd (BTK C481S) | Tau (h) BTK C418S (Act) (BTK C481S) | Tau (h) BTK T316A (Act) (BTK T316A) | Tau (h) BTK T474I (Act) (BTK T474I)
1 | CN1C/C=C/c2cnc(N)c3c(-c4ccc(C(=O)Nc5cc(C(F)(F)F)ccn5)cc4)nn(c23)[C@@H]2CCC[C@H](C2)NC(=O)C1 [Example 9] | < 100 nM | 1.53 h | < 3 nM | < 5 nM | < 5 nM | 1.02 h | 100 to 1000 nM | 10 to 50 nM and < 5 nM | 500 to 10000 nM | < 5 nM | < 5 nM | < 5 nM | 2.60 h |  | 
2 | CN1C/C=C/c2cnc(N)c3c(-c4ccc(C(=O)Nc5cc(C(F)(F)F)ccn5)cc4)nn(c23)[C@@H]2CCC[C@H](C2)NC(=O)CCC1 [Example 10] | < 100 nM | 9.46 h | < 3 nM | < 5 nM | < 5 nM | 6.77 h | < 100 nM | < 2 nM | 500 to 10000 nM | < 5 nM | < 5 nM | < 5 nM | 6.76 h | 1.76 h | 
3 | CN1C/C=C/c2cnc(N)c3c(-c4ccc(C(=O)Nc5cc(C(F)(F)F)ccn5)cc4)nn(c23)[C@@H]2CCC[C@H](C2)NC(=O)CC1 [Example 17] | < 100 nM | 8.71 h | < 3 nM | < 5 nM | < 5 nM | 5.24 h | < 100 nM | < 2 nM | < 100 nM | < 5 nM | < 5 nM | < 5 nM | 14.35 h | 3.60 h | 1.12 h
4 | CN1C/C=C/c2cnc(N)c3c(-c4ccc(C(=O)Nc5cc(C(F)(F)F)ccn5)cc4)nn(c23)[C@@H]2CCC[C@H](C2)NC(=O)CCCC1 [Example 20] | < 100 nM | 2.75 h | < 3 nM | < 5 nM | < 5 nM | 2.79 h | 100 to 1000 nM | < 2 nM | 500 to 10000 nM | < 5 nM | < 5 nM | < 5 nM | 1.05 h | 2.01 h | 
5 | Nc1ncc2c3c1c(-c1ccc(C(=O)Nc4cc(C(F)(F)F)ccn4)cc1)nn3[C@@H]1CCC[C@H](C1)NC(=O)CCNC/C=C/2 [Example 21] | < 100 nM | 3.59 h | < 3 nM | < 5 nM | < 5 nM | 4.34 h | < 100 nM | < 2 nM | 100 to 500 nM | < 5 nM | < 5 nM | < 5 nM | 7.53 h | 3.89 h | 
6 | Nc1ncc2c3c1c(-c1ccc(C(=O)Nc4ccccn4)cc1)nn3C1CCC[C@H](C1)NC(=O)CCCCC/C=C/2 [Example 24] | < 100 nM | 3.19 h |  | < 5 nM |  | 4.78 h | < 100 nM |  | < 100 nM |  | < 5 nM |  | 10.68 h | 2.66 h | 1.26 h
7 | Nc1ncc2c3c1c(-c1ccc(C(=O)Nc4cc(C(F)(F)F)ccn4)cc1)nn3[C@@H]1CCC[C@H](C1)NC(=O)CCOCC/C=C/2 [Example 26] | < 100 nM | 1.79 h | < 3 nM | < 5 nM | < 5 nM | 5.89 h | < 100 nM | < 2 nM | < 100 nM | < 5 nM | < 5 nM | < 5 nM | 6.65 h | 3.22 h | 5.95 h
8 | Nc1ncc2c3c1c(-c1ccc(C(=O)Nc4cc(C(F)(F)F)ccn4)cc1)nn3[C@@H]1CCC[C@H](C1)NC(=O)CCCOC/C=C/2 [Example 27] | < 100 nM | 4.09 h | < 3 nM | < 5 nM | < 5 nM | 5.05 h | < 100 nM | < 2 nM | < 100 nM | < 5 nM | < 5 nM | < 5 nM | 2.04 h | 3.37 h | 2.55 h
9 | C[C@H]1OC/C=C/c2cnc(N)c3c(-c4ccc(C(=O)Nc5cc(C(F)(F)F)ccn5)cc4)nn(c23)[C@@H]2CCC[C@H](C2)NC1=O [Example 28] | < 100 nM | 3.77 h | < 3 nM | < 5 nM | < 5 nM | 4.52 h | < 100 nM | < 2 nM | 100 to 500 nM | < 5 nM | < 5 nM | < 5 nM | 4.03 h | 1.43 h | 0.73 h
10 | Nc1ncc2c3c1c(-c1ccc(C(=O)Nc4cc(C(F)(F)F)ccn4)cc1)nn3[C@@H]1CCC[C@H](C1)NC(=O)CCNCC/C=C/2 [Example 33] | < 100 nM | 5.78 h | < 3 nM | < 5 nM | < 5 nM | 3.46 h | < 100 nM | < 2 nM | < 100 nM | < 5 nM | < 5 nM | < 5 nM | 9.96 h | 3.62 h | 1.26 h

Reference: patent US20250074911A1, “MACROCYCLIC BTK INHIBITORS” (Crossfire Oncology Holding B.V., priority 2021, published 2025)
